Laboratory results from article PMC5839262, “Inhibitors of bacterial protease enzymes for periodontal therapy” (Clinical and Experimental Dental Research, 2015).
Read-outs that look alike come from different tables or passages of the source. Where a SMILES comes first, the peptide text is derived from it.

Assays:
[1] = tested on: Rgp; experiment: Rgp gingipain activity, fluorescent assay with benzoyl‐R‐AMC in Pg cell suspensions; assay type: biochemical, Porphyromonas gingivalis; details: for IC50: 0.2 mM benzoyl‐R‐AMC, 15 min, read-out: concentration causing 50% inhibition of Rgp activity; for effect on Rgp activity: concentrations up to 1 × 10^−4 M, results not shown
Procedure: (§1) To obtain culture media for measuring secreted gingipain activity, we removed bacteria by centrifugation followed by filtration through 0.2‐µm filters, and we supplemented the medium with 0.2 mM PMSF to block any serine‐protease activity. To measure cell‐associated activity, we resuspended bacteria to an optical density of 4.0 at 600 nm (4 × 10^9 CFU/mL) in DPBS, and PMSF was added. Portions of the media and bacterial suspensions were frozen in liquid nitrogen and stored at −80°C.
(§2) The gingipain assay was adapted from procedures of Chen et al. (2001) and Suwannakul et al. (2010). To measure activity of Rgp or Kgp, respectively, we incubated various volumes of media or bacterial suspensions 10 min at 37°C in DPBS with 1 mM L‐cysteine to ensure that the gingipain active‐site cysteine was in the reduced, active form, and then we added the substrate benzoyl‐R‐AMC or Boc‐VLK‐AMC to give 0.2 mM substrate in a final volume of 0.1 mL. The incubation was continued 15 min at 37°C in black multiwell plates. Incubations were stopped by adding 50 μL of 1.5 mM TLCK, an irreversible inhibitor of serine and cysteine proteases. Fluorescence was measured with a fluorescence plate reader (SpectraMax Gemini EM, Molecular Devices, Sunnyvale, CA) with excitation at 365 nm and emission at 460 nm to measure hydrolysis of the substrate and release of the fluorescent product.
(§3) To measure effects of inhibitors on Rgp or Kgp activity, we diluted conditioned media fivefold or bacterial suspensions fiftyfold with DPBS, and we selected a diluted sample volume of 20 μL or less that gave a strong fluorescent signal, and we incubated the sample 15 min in DPBS with 0.2 mM substrate and various levels of protease inhibitors.

[2] = molecular target: Kgp (Porphyromonas gingivalis, UniProt B2RLK2); experiment: Kgp gingipain activity, fluorescent assay with Boc‐VLK‐AMC in Pg cell suspensions; assay type: biochemical
Procedure: as §1, §2, §3

[3] = tested on: cultured human cells; design: method as in Kadowaki et al., 2004; Kataoka et al., 2014; details: ref Kadowaki et al., 2004; Kataoka et al., 2014; cited from earlier work
[4] = tested on: Pg; experiment: Bactericidal activity, LIVE/DEAD BacLight viability assay; assay type: cell-based, Porphyromonas gingivalis; details: 1 h; for bactericidal activity: both Pg strains, concentrations up to 1 × 10^−4 M
Procedure: Pg bacteria were collected by centrifugation and diluted to 2 × 10^8 CFU/mL in isotonic saline at 25°C. Pg (10^8 CFU/mL) were then incubated with various concentrations of protease inhibitors at 37°C with gentle mixing in 0.1 mL incubation mixtures in black multiwell plates inside AnaeroGen™ Compact pouches (Oxoid Corporation, Nepean, ON, Canada) to lower the oxygen (O2) concentration. After 1 h, the number of live bacteria per milliliter was measured with a LIVE/DEAD BacLight™ Bacterial Viability kit (Invitrogen, Inc., Carlsbad, CA). The assay determines the number of live bacteria based on entry of the fluorescent dyes SYTO 9 and propidium iodide into the bacteria. SYTO 9 enters both live and dead bacteria and binds to DNA, giving a green fluorescence. Propidium iodide enters only dead bacteria and binds to DNA, giving a red fluorescence. A 0.1 mL portion of 2× BacLight dye mixture was added to the bacteria in the wells, and the plate was incubated 15 min at 37°C in an AnaeroGen™ pouch in the dark. Immediately following removal of the plate from the pouch, fluorescence was measured in a fluorescence plate reader with excitation at 485 nm. Green fluorescence of SYTO 9 was measured at 538 nm, and red fluorescence of propidium iodide was measured at 612 nm. Standard curves were prepared with various ratios of live and dead bacteria, and the number of live bacteria was determined from the ratio of green to red fluorescence. Control experiments were performed in which Pg viability was measured by diluting, plating on blood agar plates, and counting colonies after 1 to 2 weeks at 37°C under anaerobic conditions to confirm that the plating and fluorescent assays provided similar results. Toxicity of the protease inhibitors to E. coli was also measured. Assay conditions were the same as for Pg except that incubations were in air.

[5] = Water solubility; assay type: physicochemical; details: stated in discussion
[6] = tested on: E. coli; experiment: Bactericidal activity, LIVE/DEAD BacLight viability assay; assay type: cell-based, Escherichia coli; details: 1 h
Procedure: Escherichia coli strain 43827 was purchased from the American Type Culture Collection and grown in TSB overnight with shaking in air at 37°C. Suspensions were serially diluted in saline and plated on TSB agar to determine CFU per milliliter.
Pg bacteria were collected by centrifugation and diluted to 2 × 10^8 CFU/mL in isotonic saline at 25°C. Pg (10^8 CFU/mL) were then incubated with various concentrations of protease inhibitors at 37°C with gentle mixing in 0.1 mL incubation mixtures in black multiwell plates inside AnaeroGen™ Compact pouches (Oxoid Corporation, Nepean, ON, Canada) to lower the oxygen (O2) concentration. After 1 h, the number of live bacteria per milliliter was measured with a LIVE/DEAD BacLight™ Bacterial Viability kit (Invitrogen, Inc., Carlsbad, CA). […] SYTO 9 enters both live and dead bacteria and binds to DNA, giving a green fluorescence. Propidium iodide enters only dead bacteria and binds to DNA, giving a red fluorescence. […] Immediately following removal of the plate from the pouch, fluorescence was measured in a fluorescence plate reader with excitation at 485 nm. Green fluorescence of SYTO 9 was measured at 538 nm, and red fluorescence of propidium iodide was measured at 612 nm. Standard curves were prepared with various ratios of live and dead bacteria, and the number of live bacteria was determined from the ratio of green to red fluorescence. […]

[7] = tested on: cathepsin B; design: method as in McConnell et al., 1993; details: ref McConnell et al., 1993; cited from earlier work

CC(C)C[C@H](NC(=O)[C@H]1O[C@@H]1C(=O)O)C(=O)NCCCCN=C(N)N (relative stereo) [E64, trans‐epoxysuccinyl‐L‐leucylamido‐(4‐guanidino)butane]
concentration causing 90% inhibition of Rgp activity ([1]; Pg 33277 cell suspensions): 1 mM
IC50 ([1]; Pg 33277 cell suspensions): 50000 nM
effect on Kgp activity ([2]; any concentration tested, Pg 33277 cell suspensions): no effect

CN(C)C(=O)[C@H](CCCCN)NC(=O)C(=O)[C@H](CCCNC(=N)N)NC(=O)[C@H](CCCCN)NC(=O)OCc1ccccc1 [KYT‐1, carbobenzoxy‐Lys‐Arg‐CO‐Lys‐N(CH3)2]
IC50 ([1]; Pg 33277 cell suspensions): 2 nM
difference in concentrations causing 50% inhibition of Rgp and Kgp ([1]; Rgp versus Kgp, cell suspensions): 10,000 fold
toxicity to cultured human cells [3]: non‐toxic
IC50 [2]: 20000 nM
bactericidal activity [4]: not bactericidal
water solubility [5]: water soluble

CN(NC(=O)CC[C@H](NC(=O)OCc1ccccc1)C(=O)N[C@@H](CCCCN)C(=O)C(=O)NCc1ccccc1)c1ccccc1 [KYT‐36, carbobenzoxy‐Glu(NHN(CH3)Ph)‐Lys‐CO‐NHCH2Ph]
effect on Rgp activity [1]: did not inhibit Rgp
toxicity to cultured human cells [3]: non‐toxic
IC50 [2]: 1 nM
bactericidal activity [4]: not bactericidal
water solubility [5]: water soluble

NC(N)=NCCC[C@H](NC(=O)[C@@H]1CCCN1C(=O)[C@H](N)Cc1ccccc1)C(=O)CCl [PPACK, D‐Phe‐Pro‐Arg‐chloromethylketone]
IC50 ([1]; Pg 33277 cell suspensions): 2 nM
IC50 ([2]; Pg 33277 cell suspensions, 0.2 mM Boc‐VLK‐AMC, 15 min, read-out: concentration causing 50% inhibition of Kgp activity): 20 nM

Cc1cc(C)c(C(=O)OCC(=O)[C@H](CCCCN)NC(=O)[C@H](Cc2ccccc2)NC(=O)OCc2ccccc2)c(C)c1 [Z‐FK‐ck, Z‐Phe‐Lys‐2,4,6‐trimethylbenzoyloxy‐methylketone]
IC50 ([1]; Pg 33277 cell suspensions): 2000 nM
concentration causing 50% loss of viability ([6]; 37°C, in air): 30 µM
bactericidal activity ([6]; concentrations up to 1 × 10^−4 M): significant bactericidal activity
IC50 [2]: 0.5 nM
concentration causing 50% loss of viability ([4]; Pg 10^8 CFU/mL, 37°C, low oxygen): 30 µM
bactericidal activity [4]: significant bactericidal activity

CC(=O)N[C@@H](CC(C)C)C(=O)N[C@H](C(=O)N[C@H](C=O)CCCCN)C(C)C [cathepsin B inhibitor II, Ac‐Leu‐Val‐Lys‐aldehyde] (Ac-Leu-Val-Lys-aldehyde)
effect on Rgp activity [1]: no effect
IC50 [2]: 50 nM
effectiveness as inhibitor of cathepsin B relative to leupeptin [7]: ~100 times

CC(=O)N[C@@H](CC(C)C)C(=O)N[C@@H](CC(C)C)C(=O)N[C@H](C=O)CCCNC(=N)N [leupeptin, Ac‐Leu‐Leu‐Arg‐aldehyde]
IC50 ([1]; Pg 33277 cell suspensions): 20 nM
effect on Kgp activity ([2]; concentrations up to 1 × 10^−4 M, results not shown): no effect
